One compound from publication PMC12564639, “Discovery of a Novel Anticoagulant Cystine Knot Peptide from Spider Venom Gland Transcriptome” (International Journal of Molecular Sciences, 2025) can be followed below.

Series [1] concerns the target T1, Human Activated Protein C (APC-1.0) (Homo sapiens, UniProt P04070).
T1 construct: purchased Enzyme Research Laboratories, Inc., South Bend, IN, USA APC-1.0
Nature of the series: APC activity by chromogenic substrate assay. It is filed as biochemical. The settings on record: APC 0.7145 μM, S-2366 402.1 μM, PBS, 37 °C, pre-incubation 10 min, n = 3. The source says:
Human Activated Protein C (APC-1.0) was purchased from Enzyme Research Laboratories, Inc., South Bend, IN, USA. […] Activated Partial Thromboplastin Time (APTT) Test Kit (TC0306) was bought from Senkey Biotechnology Co., Ltd., Kunming, China. Prothrombin Time (PT) Test Kit (GMS10176) was purchased from GENMED Scientifics Inc., Shanghai, China. Streptavidin (SA) Biosensors (18-5019) were obtained from Sartorius AG, Göttingen, Lower Saxony, Germany. PBS (21-040-CVC) was bought from Corning Incorporated, Corning, NY, USA. Tween-20 (BS361B) was purchased from Biosharp Life Sciences, Hefei, Anhui, China. Trifluoroacetic acid (TFA, T818778-500ml, CAS: 76-05-1) and CaCl2 (C805225) were obtained from Macklin Biochemical Co., Ltd., Shanghai, China. L-oxidized glutathione (GSSG, V900363), Rose Bengal Dye (content 95%, CAS: 632-69-9, 330000-5G), and HEPES (V900477-500G) were purchased from Sigma-Aldrich LLC, St. Louis, MO, USA (Shanghai branch: Sigma-Aldrich Shanghai Trading Co., Ltd., Shanghai, China). […]
APC (0.7145 μM) was pre-incubated with varying concentrations of GC38 (0.1, 1 and 10 μM) in PBS at 37 °C for 10 min. […] Kinetic measurements were performed at 37 °C using a Multi-Mode Microplate Reader (BioTek Synergy™ H1, Winooski, VT, USA) with absorbance at 405 nm recorded every 10 s for 30 min. […]

In series [2] the test system is human plasma, intrinsic clotting cascade. Nature of the series: Activated partial thromboplastin time (APTT). It counts as biochemical. Particulars: GC38 10 μM; human plasma 20 μL, pre-incubation 5 min at 37 °C, APTT reagent 5 min, CaCl2; scattered light; mean, n = 3. As for the experimental part: APTT and PT were measured with commercially available kits according to the manufacturer’s instructions. For APTT determination, 20 μL human plasma was pre-incubated with GC38 (0.1, 1, and 10 µM) at 37 °C for 5 min, and then 30 μL APTT reagent was added and incubated for another 5 min. Subsequently, 40 μL pre-warmed CaCl2 (37 °C) was added to initiate the intrinsic clotting cascade. The intensity of the scattered light was monitored until the signals reached saturation. For PT determination, 20 μL human plasma was pre-incubated with GC38 (0.1, 1, and 10 µM) at 37 °C for 5 min. Then, 75 μL PT reagent was added to initiate the extrinsic clotting cascade. The intensity of the scattered light was monitored until the signals reached saturation. The coagulation time (APTT or PT) was defined as the time point at which the scattered light signal reached the midpoint between the baseline and maximum amplitude. All concentrations were tested in triplicate. Results are shown as mean values, and the time at maximum reactive velocity was also reported.

For series [3], the system named is human keratinocytes (HaCaT). Nature of the series: Cytotoxicity (CCK-8), HaCaT. It is filed as cell-based. The settings on record: 24 h, n = 3. As for the experimental part:
The cytotoxicity of GC38 was evaluated in human embryonic kidney cells (HEK293T), human keratinocytes (HaCaT), and murine macrophage (RAW264.7) cell lines. The cells were from Kunming Cell Bank, Chinese Academy of Sciences. HEK293T and HaCaT cells were cultured in DMEM supplemented with 10% fetal bovine serum (FBS) and 1% penicillin-streptomycin, and RAW264.7 cells were maintained in RPMI 1640 containing 10% FBS and 1% penicillin–streptomycin, with all cell lines incubated at 37 °C under 5% CO2. For cytotoxicity assessment, cells were seeded at a density of 1 × 10^5 cells per well in 96-well plates and incubated for 12 h. […] After 24 h incubation, cell viability was determined using the CCK-8 assay (10 μL/well). Absorbance was measured at 450 nm using a multi-mode microplate reader (BioTek Synergy™ H1, Winooski, VT, USA). Untreated cells and cells treated with 10% DMSO served as negative and positive controls, respectively. Viability percentages were calculated relative to the untreated control. All experiments were conducted in triplicate, and data were expressed as mean ± SEM.

In series [4] the test system is mouse red blood cells (RBCs). Nature of the series: Hemolysis assay. It counts as cell-based. The settings on record: 50 μM; RBCs 1 × 10^8/mL in PBS, 37 °C, 30 min; absorbance 450 nm; versus 1% Triton X-100; n = 3. As for the experimental part:
The hemolytic activity of GC38 was assessed using mouse red blood cells (RBCs). Fresh […] blood was centrifuged at 1500 rpm for 5 min to isolate RBCs, followed by three washes with sterile PBS and resuspension in PBS with a density of 1 × 10^8 RBCs/mL. GC38 was diluted in PBS to concentrations ranging from 3.125 to 50 μM. For the assay, 100 µL of the RBC suspension was mixed with an equal volume of GC38 solution and incubated at 37 °C for 30 min. After incubation, the samples were centrifuged at 1500 rpm for 5 min to pellet intact RBCs. The absorbance of the supernatant was measured at 450 nm using a multi-mode microplate reader (BioTek Synergy™ H1, Winooski, VT, USA). PBS and 1% Triton X-100-treated groups served as negative and positive controls, respectively. The percentage of hemolysis was calculated by comparing the absorbance values of the samples to those of the controls. All concentrations underwent triplicate testing, with results presented as mean ± SEM.

Peptide text beside a SMILES is read from it.

T1 sequence (P04070 212-461 limits assumed): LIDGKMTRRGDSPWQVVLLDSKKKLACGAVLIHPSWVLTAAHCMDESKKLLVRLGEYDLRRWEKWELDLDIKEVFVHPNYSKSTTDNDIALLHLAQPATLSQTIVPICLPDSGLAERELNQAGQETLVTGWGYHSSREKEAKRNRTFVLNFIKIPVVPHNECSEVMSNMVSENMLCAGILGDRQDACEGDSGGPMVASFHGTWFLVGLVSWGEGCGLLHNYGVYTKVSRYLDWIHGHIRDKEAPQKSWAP
T1 sequence (P04070 43-197 limits assumed): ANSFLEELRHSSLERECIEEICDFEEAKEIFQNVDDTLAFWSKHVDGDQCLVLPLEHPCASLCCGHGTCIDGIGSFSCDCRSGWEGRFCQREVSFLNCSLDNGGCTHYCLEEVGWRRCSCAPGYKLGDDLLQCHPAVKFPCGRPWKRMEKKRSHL

As to `CSCC[C@@H]1NC(=O)[C@H](CC(N)=O)NC(=O)CNC(=O)CNC(=O)[C@H](Cc2c[nH]cn2)NC(=O)[C@H](CCCNC(=N)N)NC(=O)CNC(=O)[C@@H]2CSSC[C@@H]3NC(=O)[C@H](CCCNC(=N)N)NC(=O)[C@H](C)NC(=O)CNC(=O)[C@H](CCCCN)NC(=O)CNC(=O)[C@H](CO)NC(=O)[C@@H](NC(=O)CN)CSSC[C@H](NC(=O)[C@H](CSSC[C@@H](C(=O)N[C@@H](CCC(=O)O)C(=O)N[C@@H](Cc4c[nH]c5ccccc45)C(=O)N[C@@H](CC(N)=O)C(=O)N[C@@H](Cc4c[nH]c5ccccc45)C(=O)N[C@@H](CCCCN)C(=O)N[C@H](C(=O)NCC(=O)O)[C@@H](C)O)NC(=O)[C@H](CO)NC(=O)[C@H](CCCCN)NC(=O)[C@H](Cc4ccc(O)cc4)NC1=O)NC(=O)[C@H](CCCCN)NC(=O)[C@H](CO)NC(=O)[C@@H]1CCCN1C(=O)[C@H](C)NC3=O)C(=O)N[C@@H](CO)C(=O)NCC(=O)N[C@@H](CC(C)C)C(=O)N[C@@H](CO)C(=O)N2` [GC38] (HELM PEPTIDE1{G.C.S.G.K.G.A.R.C.A.P.S.K.C.C.S.G.L.S.C.G.R.H.G.G.N.M.Y.K.S.C.E.W.N.W.K.T.G}$PEPTIDE1,PEPTIDE1,2:R3-15:R3|PEPTIDE1,PEPTIDE1,9:R3-20:R3|PEPTIDE1,PEPTIDE1,14:R3-31:R3$$$V2.0), the “activity of APC at maximum catalytic velocity (Vmax)” value in series [1] (GC38 10 μM, 405 nm, versus PBS control, mean) stood at 171%. Moreover, the “APC activity, concentration dependence” value in series [1] (GC38 0.1-10 μM, absorbance 405 nm every 10 s for 30 min) was “enhanced APC activity in a concentration-dependent manner”. Also, the “APTT extension versus control” value in series [2] is 1.4 fold. Moreover, in series [3] (50 μM, serum-free medium, CCK-8, 450 nm, relative to untreated control), the “cell viability HaCaT” value is on record as “greater than 95%”. Further, the “cytotoxicity HaCaT” value in series [3] (0.1–50 μM, CCK-8) is given as “negligible cytotoxicity”. Besides, the hemolytic activity entry in series [4] was “below 3%”.
